Laboratory results reported in ChEMBL document CHEMBL1806471, “Identification of 2-(4-pyridyl)thienopyridinones as GSK-3β inhibitors” (Bioorg Med Chem Lett, 2011).

How the values were obtained:
[1] = target: T1, Glycogen synthase kinase-3 beta (Homo sapiens, UniProt P49841); experiment: Inhibition of human full length His-tagged GSK3-beta expressed in baculovirus by alphaLISA assay
[2] = target: Cyclin-dependent kinase 2 (Homo sapiens, UniProt P24941); experiment: Inhibition of recombinant CDK2 expressed in baculovirus using […] by 33-P leadseeker assay
[3] = target: T1, Glycogen synthase kinase-3 beta; experiment: Inhibition of human flag-tagged GSK3-beta expressed in HEK-MSRII cells assessed as CRMP-2 phosphorylation by alphaLISA assay; assay type: cell-based
[4] = target: T1, Glycogen synthase kinase-3 beta; experiment: Inhibition of human GSK3-beta expressed in baculovirus by fluorescence polarization assay

T1 sequence (P49841 whole entry): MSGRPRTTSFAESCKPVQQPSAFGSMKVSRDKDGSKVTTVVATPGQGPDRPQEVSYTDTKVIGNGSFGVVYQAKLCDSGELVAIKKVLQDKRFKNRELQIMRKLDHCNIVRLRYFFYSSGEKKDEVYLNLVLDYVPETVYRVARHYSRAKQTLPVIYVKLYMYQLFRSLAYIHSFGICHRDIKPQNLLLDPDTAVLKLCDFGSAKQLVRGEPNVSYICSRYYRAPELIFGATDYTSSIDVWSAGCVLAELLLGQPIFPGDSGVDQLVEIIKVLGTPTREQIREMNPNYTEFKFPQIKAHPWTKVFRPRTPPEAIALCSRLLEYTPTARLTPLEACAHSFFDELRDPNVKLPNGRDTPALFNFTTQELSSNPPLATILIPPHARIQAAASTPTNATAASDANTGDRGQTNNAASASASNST

SMILES: O=c1[nH]cc(-c2ccc(N3CCOCC3)cc2)c2sc(-c3cn[nH]c3)cc12
- IC50 [1]: 12.6 nM
- IC50 [2]: 251 nM
- IC50 [3]: 398 nM

SMILES: N#Cc1ccc(F)c(-c2c[nH]c(=O)c3cc(-c4ccncc4)sc23)c1
- IC50 [4]: 5.01 nM
- IC50 [2]: 200 nM
- IC50 [3]: 79.4 nM

SMILES: O=c1[nH]cc(-c2cccc(Cl)n2)c2sc(-c3ccncc3)cc12
- IC50 [4]: 10 nM
- IC50 [2]: > 15800 nM
- IC50 [3]: 3980 nM

SMILES: N#Cc1cscc1-c1c[nH]c(=O)c2cc(-c3ccncc3)sc12
- IC50 [4]: 12.6 nM
- IC50 [2]: 158 nM
- IC50 [3]: 316 nM

SMILES: Cc1cc(-c2cc3c(=O)[nH]cc(-c4cccc(NS(C)(=O)=O)c4)c3s2)ccn1
- IC50 [4]: 2510 nM
- IC50 [3]: > 100000 nM

SMILES: CN(C)C(=O)c1ccccc1-c1c[nH]c(=O)c2cc(-c3ccncc3)sc12
- IC50 [4]: 316 nM
- IC50 [2]: > 15800 nM
- IC50 [3]: 6310 nM

SMILES: CS(=O)(=O)Nc1cccc(-c2c[nH]c(=O)c3cc(-c4ccnc5[nH]ccc45)sc23)c1
- IC50 [1]: 20 nM
- IC50 [2]: 3160 nM
- IC50 [3]: > 100000 nM

SMILES: O=c1[nH]cc(-c2ccc(N3CCOCC3)cc2)c2sc(-c3ccncc3)cc12
- IC50 [1]: 63.1 nM
- IC50 [4]: 501 nM
- IC50 [2]: 15800 nM
- IC50 [3]: 1260 nM

SMILES: O=c1[nH]cc(-c2ccc3c(c2)OCCO3)c2sc(-c3ccncc3)cc12
- IC50 [4]: 6.31 nM
- IC50 [2]: 1580 nM
- IC50 [3]: 631 nM

SMILES: Cn1cc(-c2ccc(N3CCOCC3)cc2)c2sc(-c3ccncc3)cc2c1=O
- IC50 [1]: 251 nM
- IC50 [2]: > 15800 nM
- IC50 [3]: > 100000 nM

SMILES: N#CCc1cccc(-c2c[nH]c(=O)c3cc(-c4ccncc4)sc23)c1
- IC50 [4]: 10 nM
- IC50 [2]: 3980 nM
- IC50 [3]: 631 nM

SMILES: COc1cc(F)ccc1-c1c[nH]c(=O)c2cc(-c3ccncc3)sc12
- IC50 [4]: 158 nM
- IC50 [2]: 5010 nM
- IC50 [3]: 5010 nM

SMILES: O=c1[nH]cc(-c2cccc3cccnc23)c2sc(-c3ccncc3)cc12
- IC50 [4]: 316 nM
- IC50 [2]: 12600 nM
- IC50 [3]: 7940 nM

SMILES: COCc1ccccc1-c1c[nH]c(=O)c2cc(-c3ccncc3)sc12
- IC50 [4]: 100 nM
- IC50 [2]: 5010 nM
- IC50 [3]: 3980 nM

SMILES: CCOc1ccc(-c2c[nH]c(=O)c3cc(-c4ccncc4)sc23)cn1
- IC50 [4]: 126 nM
- IC50 [2]: 6310 nM
- IC50 [3]: 3160 nM

SMILES: COc1ncc(-c2ccc(N3CCOCC3)cc2)c2sc(-c3ccncc3)cc12
- IC50 [1]: 10000 nM
- IC50 [2]: > 15800 nM
- IC50 [3]: > 100000 nM
